In patent US11072634B2, “Inhibitors of transglutaminases” (Zedira GmbH, priority 2016, dated 2021):

These molecules were tested against T1, recombinant human tissue transglutaminase (rhTG2) (Homo sapiens, UniProt P21980) (assay: Inhibition of rec. human tissue transglutaminase (fluorescence, Abz-APE(CAD-DNP)QEA-OH)). Settings: Table 2, TG2 inhibitors.
T1 construct: purchased Zedira 1022 (so in the source); T022)
T1 sequence (P21980 1-687): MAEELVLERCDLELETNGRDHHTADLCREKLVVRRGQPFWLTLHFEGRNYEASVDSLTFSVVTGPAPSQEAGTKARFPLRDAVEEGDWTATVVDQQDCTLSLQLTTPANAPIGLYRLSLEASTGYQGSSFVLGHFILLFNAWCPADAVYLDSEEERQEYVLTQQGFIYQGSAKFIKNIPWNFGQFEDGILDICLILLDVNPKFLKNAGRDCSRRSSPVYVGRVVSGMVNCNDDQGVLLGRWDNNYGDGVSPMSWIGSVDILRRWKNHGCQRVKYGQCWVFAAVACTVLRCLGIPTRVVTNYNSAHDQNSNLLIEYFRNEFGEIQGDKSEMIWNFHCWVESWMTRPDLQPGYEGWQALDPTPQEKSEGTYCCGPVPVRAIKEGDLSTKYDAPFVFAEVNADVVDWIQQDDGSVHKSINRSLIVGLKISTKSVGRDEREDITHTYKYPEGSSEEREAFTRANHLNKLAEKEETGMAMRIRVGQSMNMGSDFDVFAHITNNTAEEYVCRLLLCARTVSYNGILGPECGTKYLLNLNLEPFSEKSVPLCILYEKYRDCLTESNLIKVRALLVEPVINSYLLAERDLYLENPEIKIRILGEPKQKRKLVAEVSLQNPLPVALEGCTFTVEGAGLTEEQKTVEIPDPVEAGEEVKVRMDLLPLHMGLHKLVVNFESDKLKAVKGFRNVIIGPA
Format: biochemical
Protocol: Method for Inhibition Studies of Rec. Human Tissue Transglutaminase (rhTG2)
250 μg lyophilized His-tagged recombinant human tissue transglutaminase (His6-rhTG2, Zedira product 1022) is reconstituted in H2O (volume depends on original volume before lyophilization) resulting in a buffer containing 10 mM Tris-HCl, 150 mM NaCl, 1 mM EDTA, 5 mM DTT, 189 mg/ml maltodextrin, pH=8.1. The rhTG2 stock solution is diluted in buffer (50 mM Tris-HCl, 7.5 mM CaCl2, 150 mM NaCl, pH=7.4) to give a working solution of 100 U/ml (based on the amine-incorporation activity measured using T036, described below).
A 10 mM inhibitor stock solution is prepared in DMSO, and from this stock solution a serial 1:2-fold dilution series is prepared, also in DMSO. Each of these initial dilutions is subsequently diluted 1:50-fold with buffer (50 mM Tris-HCl, 7.5 mM CaCl2, 150 mM NaCl, pH=7.4) to yield the final working dilutions containing 2% (v/v) DMSO. 15 μl of inhibitor working dilution are added per well of a 96 well microtiter plate. As control, 15 μl of a 2% (v/v) DMSO solution prepared using the buffer mentioned above are added per well.
600 μl of His6-rhTG2 working solution are added to 11.4 ml assay buffer (50 mM Iris-HCl, 7.5 mM CaCl2, 150 mM NaCl, 5 mM DTI, 13.4 mM glycine methylester, 50 μM Abz-APE(CAD-DNP)QEA-OH, (Zedira product A102; patent No.: EP 1781807B1), pH=7.4). From this master-mix solution, 285 μl are added per well containing the inhibitor. Increase in fluorescence is measured using λex=313 nm and λem=418 nm at 37° C. for 20 min. A slope of the increase in fluorescence between 10 and 20 min is calculated for determination of the IC50 value (inhibitor concentration at which 50% of the initial TG2 activity is blocked).
Analysis of enzymatic activity is performed by calculation of the slope of an increase in fluorescence intensity. IC50 values are calculated by plotting the enzymatic activity (as percentage from control containing 2% DMSO instead of inhibitor) against the inhibitor concentration. IC50 is defined as the inhibitor concentration blocking 50%) of initial enzyme activity.

Compound	IC50 [nM]
CCC(CC)CNC(=O)Cn1cccc(NC(=O)[C@H](CCC(=O)C(N)=O)NC(=O)c2cnccn2)c1=O [Compound E11, (S)—N1-(1-(2-(2-ethylbutylamino)-2-oxoethyl)-2-oxo-1,2-dihydropyridin-3-yl)-5-oxo-2-(pyrazine-2-carboxamido)hexanediamide]	450
CCC(CC)CNC(=O)Cn1cccc(NC(=O)[C@H](CCC(=O)C(N)=O)NC(=O)c2ccccc2)c1=O [Compound E12, (S)-2-benzamido-N1-(1-(2-(2-ethylbutylamino)-2-oxoethyl)-2-oxo-1,2-dihydropyridin-3-yl)-5-oxonexanediamide]	950
CCC(CC)CNC(=O)Cn1cccc(NC(=O)[C@H](CCC(=O)C(N)=O)NC(=O)c2cc([N+](=O)[O-])ccc2C)c1=O [Compound E13]	700
CCC(CC)CNC(=O)Cn1cccc(NC(=O)[C@H](CCC(=O)C(N)=O)NC(=O)c2scnc2C)c1=O [Compound E14, (S)—N1-(1-(2-(2-ethylbutylamino)-2-oxoethyl)-2-oxo-1,2-dihydropyridin-3-yl)-2-(4-methylthiazole-5-carboxamido)-5-oxohexanediamide]	250
CCC(CC)CNC(=O)Cn1cccc(NC(=O)[C@H](CCC(=O)C(N)=O)NS(=O)(=O)c2cccc3c(N(C)C)cccc23)c1=O [Compound E15, (S)-2-(5-(dimethylamino)naphthalene-1-sulfonamido)-N1-(1-(2-(2-ethylbutylamino)-2-oxoethyl)-2-oxo-1,2-dihydropyridin-3-yl)-5-oxonexanediamide]	6000
CCC(CC)CNC(=O)Cn1cccc(NC(=O)[C@H](CCC(=O)C(=O)NC2CC2)NC(=O)c2ccccc2)c1=O [Compound E23, (S)-2-benzamido-N6-cyclopropyl-N1-(1-(2-(2-ethylbutylamino)-2-oxoethyl)-2-oxo-1,2-dihydropyridin-3-yl)-5-oxonexanediamide]	1100
COC(=O)[C@H](CC(C)C)NC(=O)[C@@H]1CCCN1C(=O)[C@@H](NC(=O)[C@H](CCC(=O)C(=O)NC1CC1)NC(=O)c1ccccc1)C(C)C [Compound E24, (S)-methyl 2-((S)-1-((S)-2-((S)-2-benzamido-6-(cyclopropylamino)-5,6-dioxonexan-amido)-3-methylbutanoyl)pyrrolidine-2-carboxamido)-4-methylpentanoate]	550
CCC(CC)CNC(=O)Cn1ccc(C)c(NC(=O)[C@H](CCC(=O)C(=O)NC)NC(=O)c2cncn2C)c1=O [Compound E42, (S)—N1-(1-(2-(2-ethylbutylamino)-2-oxoethyl)-4-methyl-2-oxo-1,2-dihydropyridin-3-yl)-N6-methyl-2-(1-methyl-1H-imidazole-5-carboxamido)-5-oxohexanediamide]	1600
CCC(CC)CNC(=O)Cn1cc(C)cc(NC(=O)[C@H](CCC(=O)C(=O)NC)NC(=O)c2cncn2C)c1=O [Compound E43, (S)—N1-(1-(2-(2-ethylbutylamino)-2-oxoethyl)-5-methyl-2-oxo-1,2-dihydropyridin-yl)-N6-methyl-2-(1-methyl-1H-imidazole-5-carboxamido)-5-oxohexanediamide]	60
CCC(CC)CNC(=O)Cn1c(C)ccc(NC(=O)[C@H](CCC(=O)C(=O)NC)NC(=O)c2cncn2C)c1=O [Compound E44, (S)—N1-(1-(2-(2-ethylbutylamino)-2-oxoethyl)-6-methyl-2-oxo-1,2-dihydropyridin-3-yl)-N6-methyl-2-(1-methyl-1H-imidazole-5-carboxamido)-5-oxohexanediamide]	80
CCC(CC)CNC(=O)Cn1cc(Cl)cc(NC(=O)[C@H](CCC(=O)C(=O)NC)NC(=O)c2cncn2C)c1=O [Compound E45, (S)—N1-(5-chloro-1-(2-(2-ethylbutylamino)-2-oxoethyl)-2-oxo-1,2-dihydropyridin-yl)-N6-methyl-2-(1-methyl-1H-imidazole-5-carboxamido)-5-oxohexanediamide]	75

Further lines, results first:

IC50 [nM]	Compound
100	CCNC(=O)C(=O)CC[C@H](NC(=O)c1cncn1C)C(=O)Nc1cccn(CC(=O)NCC(CC)CC)c1=O [Compound E17, (S)—N1-ethyl-N6-(1-(2-(2-ethylbutylamino)-2-oxoethyl)-2-oxo-1,2-dihydropyridin-3-yl)-5-(1-methyl-1H-imidazole-5-carboxamido)-2-oxonexanediamide]
125	CCCCCNC(=O)C(=O)CC[C@H](NC(=O)c1cncn1C)C(=O)Nc1cccn(CC(=O)NCC(CC)CC)c1=O [Compound E18, (S)—N1-(1-(2-(2-ethylbutylamino)-2-oxoethyl)-2-oxo-1,2-dihydropyridin-3-yl)-2-(1-methyl-1H-imidazole-5-carboxamido)-5-oxo-N6-pentylnexanediamide]
350	CCC(CC)CNC(=O)Cn1cccc(NC(=O)[C@H](CCC(=O)C(=O)NC2CC2)NC(=O)c2cncn2C)c1=O [Compound E19, (S)—N1-cyclopropyl-N6-(1-(2-(2-ethylbutylamino)-2-oxoethyl)-2-oxo-1,2-dihydropyridin-3-yl)-5-(1-methyl-1H-imidazole-5-carboxamido)-2-oxonexanediamide]
600	CCC(CC)CNC(=O)Cn1cccc(NC(=O)[C@H](CCC(=O)C(=O)NCc2ccccc2)NC(=O)c2cncn2C)c1=O [Compound E20, (S)—N1-benzyl-N6-(1-(2-(2-ethylbutylamino)-2-oxoethyl)-2-oxo-1,2-dihydropyridin-3-yl)-5-(1-methyl-1H-imidazole-5-carboxamido)-2-oxonexanediamide]
5000	CCC(CC)CNC(=O)Cn1cccc(NC(=O)[C@H](CCC(=O)C(=O)NC(C)(C)C)NC(=O)c2cncn2C)c1=O [Compound E21, (S)—N1-tert-butyl-N6-(1-(2-(2-ethylbutylamino)-2-oxoethyl)-2-oxo-1,2-dihydropyridin-3-yl)-5-(1-methyl-1H-imidazole-5-carboxamido)-2-oxonexanediamide]
700	CCC(CC)CNC(=O)Cn1cccc(NC(=O)[C@H](CCC(=O)C(=O)NCC(=O)OC)NC(=O)c2cncn2C)c1=O [Compound E38, (S)-methyl 2-(6-(1-(2-(2-ethylbutylamino)-2-oxoethyl)-2-oxo-1,2-dihydropyridin-3-ylamino)-5-(1-methyl-1H-imidazole-5-carboxamido)-2,6-dioxohexanamido)acetat]
135	CCC(CC)CNC(=O)Cn1cccc(NC(=O)[C@H](CCC(=O)C(=O)NCOC)NC(=O)c2cncn2C)c1=O [Compound E39, (S)—N1-(1-(2-(2-ethylbutylamino)-2-oxoethyl)-2-oxo-1,2-dihydropyridin-3-yl)-N6-(methoxymethyl)-2-(1-methyl-1H-imidazole-5-carboxamido)-5-oxohexanediamide]
500	CCC(CC)CNC(=O)Cn1cccc(NC(=O)[C@H](CCC(=O)C(=O)Nc2cncs2)NC(=O)c2cncn2C)c1=O [Compound E40, (S)—N1-(1-(2-(2-ethylbutylamino)-2-oxoethyl)-2-oxo-1,2-dihydropyridin-3-yl)-2-(1-methyl-1H-imidazole-5-carboxamido)-5-oxo-N6-(thiazol-5-yl)hexanediamide]
1450	CCC(CC)CNC(=O)Cn1cccc(NC(=O)[C@H](CCC(=O)C(=O)NCS(=O)(=O)c2ccc(C)cc2)NC(=O)c2cncn2C)c1=O [Compound E41, (S)—N1-(1-(2-(2-ethylbutylamino)-2-oxoethyl)-2-oxo-1,2-dihydropyridin-3-yl)-2-(1-methyl-1H-imidazole-5-carboxamido)-5-oxo-N6-(tosylmethyl)hexanediamide]
